Experimental data taken from patent US11014895B2, “Heterocyclic urea compound, and drug composition and application thereof” (CHINA PHARMACEUTICAL UNIVERSITY, priority 2017, dated 2021).

Experiments:
IDO1 enzyme = IDO1 enzyme (Homo sapiens, UniProt P14902); test: Determination of biochemical activity of IDO1 enzyme (absorbance at 320 nm); conditions: room temperature, 3 hours
How it was run: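 Enzyme and compound were reacted in sodium hydrogen phosphate buffer (pH 7-8) for 3 hours at room temperature. Absorbance at 320 nm gave inhibition rate, and IC50 was calculated from it.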

[1] = molecular target: T1, IDO1 enzyme in the Hela cell (Homo sapiens, UniProt P14902); test: Cell activity: interferon γ-stimulated Hela cells, absorbance of supernatant at 480 nm; format: cell-based; conditions: interferon γ 100 ng/ml, 72 hours
T1 construct: endogenous in cells; host or cells: HeLa cells stimulated with interferon γ (100 ng/ml)
T1 sequence (P14902 whole entry): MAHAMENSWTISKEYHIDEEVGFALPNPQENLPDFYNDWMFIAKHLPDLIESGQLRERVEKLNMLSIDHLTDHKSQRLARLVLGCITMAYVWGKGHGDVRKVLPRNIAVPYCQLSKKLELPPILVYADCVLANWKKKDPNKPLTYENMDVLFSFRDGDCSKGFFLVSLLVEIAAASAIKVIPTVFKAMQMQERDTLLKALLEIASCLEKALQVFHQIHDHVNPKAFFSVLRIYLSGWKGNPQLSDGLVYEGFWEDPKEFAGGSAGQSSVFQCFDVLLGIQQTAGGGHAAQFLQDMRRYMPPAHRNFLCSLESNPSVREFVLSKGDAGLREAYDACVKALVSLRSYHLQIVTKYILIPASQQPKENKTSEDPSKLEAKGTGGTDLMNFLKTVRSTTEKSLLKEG
How it was run: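 HeLa cells treated with compound plus interferon γ (100 ng/ml final) and cultured 72 h at 37 °C. Supernatant treated with trichloroacetic acid 30 min at 50 °C, centrifuged, then mixed with 2% dimethylaminobenzaldehyde in acetic acid; absorbance read at 480 nm.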

Chain of IDO1 enzyme (P14902 whole entry): as above

IC50 (IDO1 enzyme) [µM] | IC50 [1] [µM] | Compound
> 1 | > 1 | CC1CCC(NC(=O)Nc2nonc2/C(=N/O)Nc2ccc(F)c(Br)c2)CC1 (centres unmarked) [Embodiment 9, (Z)-1-(4-(N-(3-bromo-4-fluorophenyl)-N′-hydroxyaminoiminomethyl)-1,2,5-oxadiazole-3-substituted)-3-(4-methylcyclohexyl)urea]
0.1 to 1 | 0.1 to 1 | NC1CCC(NC(=S)Nc2nonc2/C(=N/O)Nc2ccc(F)c(Br)c2)CC1 (centres unmarked) [Embodiment 126, (Z)-1-(4-(N-(3-bromo-4-fluorophenyl)-N′-hydroxyaminoiminomethyl)-1,2,5-oxadiazole-3-substituted)-3-(4-aminocyclohexyl)thiourea]
0.1 to 1 | 0.1 to 1 | COc1ccc(NC(=S)Nc2nocc2/C(=N/O)Nc2ccc(F)c(Br)c2)cc1 [Embodiment 133, (Z)-1-(4-(N-(3-bromo-4-fluorophenyl)-N′-hydroxyaminoiminomethyl)-isoxazole-3-substituted)-3-(4-methoxyphenyl)thiourea]
> 1 | > 1 | O=C(Nc1ccsc1)Nc1cocc1/C(=N/O)Nc1ccc(F)c(Br)c1 [Embodiment 78]
0.1 to 1 | 0.1 to 1 | N=C(Nc1cocc1/C(=N/O)Nc1ccc(F)c(Br)c1)NC1CCCCC1 [Embodiment 162, (Z)-1-(4-(N-(3-bromo-4-fluorophenyl)-N′-hydroxyaminoiminomethyl)-furan-3-substituted)-3-cyclohexylguanidine]
< 0.001 | < 0.001 | N=C(Nc1ccc(O)cc1)Nc1nonc1/C(=N/O)Nc1ccc(F)c(Br)c1 [Embodiment 141, (Z)-1-(4-(N-(3-bromo-4-fluorophenyl)-N′-hydroxyaminoiminomethyl)-1,2,5-oxadiazole-3-substituted)-3-(4-hydroxyphenyl)guanidine]
0.1 to 1 | 0.1 to 1 | CCCNC(=O)Nc1cocc1/C(=N/O)Nc1ccc(F)c(Br)c1 [Embodiment 70, (Z)-1-(4-(N-(3-bromo-4-fluorophenyl)-N′-hydroxyaminoiminomethyl)-furan-3-substituted)-3-propylurea]
> 1 | > 1 | O=C(Nc1ccc(C(F)(F)F)cc1)Nc1nonc1/C(=N/O)Nc1ccc(F)c(Br)c1 [Embodiment 6, (Z)-1-(4-(N-(3-bromo-4-fluorophenyl)-N′-hydroxyaminoiminomethyl)-1,2,5-oxadiazole-3-substituted)-3-(4-trifluorotolyl)urea]
< 0.001 | < 0.001 | O=C(Nc1conc1/C(=N/O)Nc1ccc(F)c(Br)c1)NC1CCC(O)CC1 (centres unmarked) [Embodiment 105]
> 1 | > 1 | COc1ccccc1NC(=O)Nc1nonc1/C(=N/O)Nc1ccc(F)c(Br)c1 [Embodiment 3, (Z)-1-(4-(N-(3-bromo-4-fluorophenyl)-N′-hydroxyaminoiminomethyl)-1,2,5-oxadiazole-3-substituted)-3-(2-methoxyphenyl)urea]
< 0.001 | < 0.001 | COc1ccc(NC(=N)Nc2nonc2/C(=N/O)Nc2ccc(F)c(Br)c2)cc1 [Embodiment 139, (Z)-1-(4-(N-(3-bromo-4-fluorophenyl)-N′-hydroxyaminoiminomethyl)-1,2,5-oxadiazole-3-substituted)-3-(4-methoxyphenyl)guanidine]
0.1 to 1 | 0.1 to 1 | O=C(Nc1nonc1/C(=N/O)Nc1ccc(F)c(Br)c1)Nc1csc2ccccc12 [Embodiment 39, (Z)-1-(4-(N-(3-bromo-4-fluorophenyl)-N′-hydroxyaminoiminomethyl)-1,2,5-oxadiazole-3-substituted)-3-(benzothiophene-3-substituted)urea]
< 0.001 | < 0.001 | NS(=O)(=O)NCCCNC(=O)Nc1nonc1/C(=N/O)Nc1ccc(F)c(Br)c1 [Embodiment 18, (Z)-1-(4-(N-(3-bromo-4-fluorophenyl)-N′-hydroxyaminoiminomethyl)-1,2,5-oxadiazole-3-substituted)-3-(3-aminosulfonylamino-propyl)urea]
0.1 to 1 | 0.1 to 1 | O=C(Nc1nonc1/C(=N/O)Nc1ccc(F)c(Br)c1)Nc1coc2ccccc12 [Embodiment 38, (Z)-1-(4-(N-(3-bromo-4-fluorophenyl)-N′-hydroxyaminoiminomethyl)-1,2,5-oxadiazole-3-substituted)-3-(benzofuran-3-substituted)urea]
0.1 to 1 | 0.1 to 1 | COc1ccc(NC(=S)Nc2nonc2/C(=N/O)Nc2ccc(F)c(Br)c2)cc1 [Embodiment 115, (Z)-1-(4-(N-(3-bromo-4-fluorophenyl)-N′-hydroxyaminoiminomethyl)-1,2,5-oxadiazole-3-substituted)-3-(4-methoxyphenyl)thiourea]
0.1 to 1 | 0.1 to 1 | O=C(Nc1nonc1/C(=N/O)Nc1ccc(F)c(Cl)c1)NC1CCCCC1 [Embodiment 25, (Z)-1-(4-(N-(3-chloro-4-fluorophenyl)-N′-hydroxyaminoiminomethyl)-1,2,5-oxadiazole-3-substituted)-3-cyclohexylurea]
0.1 to 1 | 0.1 to 1 | N=C(Nc1nocc1/C(=N/O)Nc1ccc(F)c(Br)c1)NC1CCCCC1 [Embodiment 159, (Z)-1-(4-(N-(3-bromo-4-fluorophenyl)-N′-hydroxyaminoiminomethyl)-isoxazole-3-substituted)-3-cyclohexylguanidine]
0.1 to 1 | 0.1 to 1 | (Z)-1-(4-(N-(3-bromo-4-fluorophenyl)-N′-hydroxyaminoiminomethyl)-isoxazole-3-substituted)-3-phenylurea [Embodiment 81]
0.1 to 1 | 0.1 to 1 | CS(=O)(=O)NCCNC(=O)Nc1cocc1/C(=N/O)Nc1ccc(F)c(Br)c1 [Embodiment 72, (Z)-1-(4-(N-(3-bromo-4-fluorophenyl)-N′-hydroxyaminoiminomethyl)-furan-3-substituted)-3-(2-methamidoethyl)urea]
0.1 to 1 | 0.1 to 1 | CS(=O)(=O)N1CCC(NC(=O)Nc2nonc2/C(=N/O)Nc2ccc(F)c(Br)c2)CC1 [Embodiment 12, (Z)-1-(4-(N-(3-bromo-4-fluorophenyl)-N′-hydroxyaminoiminomethyl)-1,2,5-oxadiazole-3-substituted)-3-(1(methsulfonyl)piperidine-4-substituted)urea]
0.1 to 1 | 0.1 to 1 | O=C(Nc1nonc1/C(=N/O)Nc1ccc(F)c(Br)c1)N1CCNCC1 [Embodiment 48, (Z)-1-(4-(N-(3-bromo-4-fluorophenyl)-N′-hydroxyaminoiminomethyl)-1,2,5-oxadiazole-3-substituted)piperazine-1-carbamide]
< 0.001 | < 0.001 | N=C(Nc1ccc(N)cc1)Nc1nonc1/C(=N/O)Nc1ccc(F)c(Br)c1 [Embodiment 142, (Z)-1-(4-(N-(3-bromo-4-fluorophenyl)-N′-hydroxyaminoiminomethyl)-1,2,5-oxadiazole-3-substituted)-3-(4-aminophenyl)guanidine]
0.1 to 1 | 0.1 to 1 | COc1ccc(NC(=N)Nc2cocc2/C(=N/O)Nc2ccc(F)c(Br)c2)cc1 [Embodiment 160, (Z)-1-(4-(N-(3-bromo-4-fluorophenyl)-N′-hydroxyaminoiminomethyl)-furan-3-substituted)-3-(4-methoxyphenyl)guanidine]
0.1 to 1 | 0.1 to 1 | N=C(Nc1ccccc1)Nc1cocc1/C(=N/O)Nc1ccc(F)c(Br)c1 [Embodiment 161, (Z)-1-(4-(N-(3-bromo-4-fluorophenyl)-N′-hydroxyaminoiminomethyl)-furan-3-substituted)-3-phenylguanidine]
> 1 | > 1 | COc1ccc(NC(=S)Nc2cocc2/C(=N/O)Nc2ccc(F)c(Br)c2)cc1 [Embodiment 136, (Z)-1-(4-(N-(3-bromo-4-fluorophenyl)-N′-hydroxyaminoiminomethyl)-furan-3-substituted)-3-(4-methoxyphenyl)thiourea]
